Measured values published in patent publication US7384927B2, “Alkylated porphyrins as pesticides acting both in the presence and absence of light” (priority 2003, dated 2008).

Test system: Ceratitis capitata flies
Experiment: Insecticidal action in the dark: fly survival after porphyrin bait
Type: in vivo
Settings: dark, fed 24 h, survival 12 h after change to porphyrin-free bait
Experimental: For comparison, data obtained with two conventional porphyrins (as those described in WO 97/29637) offered to the insects for 24 h at a 3.0 and 8.1 μmolar concentration in the same bait are also shown. In all cases, the survival was determined 12 hours after changing food supply from a porphyrin-containing to a porphyrin-free bait. […] These flies were then used in the various experimental sessions. […] The number of survivors was evaluated 12 h after switching from administration of a porphyrin-containing bait to a porphyrin-free bait. In none of the experiments was mortality or any apparent toxic effect observed in control flies (flies not fed with porphyrin, see survival at 0 μM porphyrin concentration).

| Structure (SMILES) | Survival (% of control untreated flies) (0.75 μM in bait) | Survival (% of control untreated flies) (1.25 μM in bait) | Survival (% of control untreated flies) (2.10 μM in bait) | Survival (% of control untreated flies) (3.00 μM in bait) | Survival (% of control untreated flies) (5.00 μM in bait) | Survival (% of control untreated flies) (8.10 μM in bait) |
| --- | --- | --- | --- | --- | --- | --- |
| CCCCCCCCCCCC[n+]1ccc(-c2c3nc(c(-c4cc[n+](C)cc4)c4ccc([nH]4)c(-c4cc[n+](C)cc4)c4nc(c(-c5cc[n+](C)cc5)c5ccc2[nH]5)C=C4)C=C3)cc1 [C12, meso[tri(N-methyl-pyridyl), mono(N-dodecyl-pyridyl)]porphine] | 100 % of control untreated flies | 73 % of control untreated flies | 58 % of control untreated flies | 42 % of control untreated flies | 38 % of control untreated flies | 35 % of control untreated flies |
| CCCCCCCCCCCCCC[n+]1ccc(-c2c3nc(c(-c4cc[n+](C)cc4)c4ccc([nH]4)c(-c4cc[n+](C)cc4)c4nc(c(-c5cc[n+](C)cc5)c5ccc2[nH]5)C=C4)C=C3)cc1 [C14, meso[tri(N-methyl-pyridyl), mono(N-tetradecyl-pyridyl)]porphine] | 100 % of control untreated flies | 51 % of control untreated flies | 38 % of control untreated flies | 21 % of control untreated flies | 14 % of control untreated flies | 9 % of control untreated flies |
| CCCCCCCCCCCCCCCCCC[n+]1ccc(-c2c3nc(c(-c4cc[n+](C)cc4)c4ccc([nH]4)c(-c4cc[n+](C)cc4)c4nc(c(-c5cc[n+](C)cc5)c5ccc2[nH]5)C=C4)C=C3)cc1 [C18, meso[tri(N-methyl-pyridyl), mono(N-octadecyl-pyridyl)]porphine] | 100 % of control untreated flies | 42 % of control untreated flies | 29 % of control untreated flies | 12 % of control untreated flies | 2 % of control untreated flies | 0 % of control untreated flies |
